Experimental data from patent US8318504B2, “MRP2 efflux pathway prognostic method” (priority 2009, dated 2012).

Key:
[1] = ATP-dependent transport of CLF into control wild type Sf21 membrane vesicles; assay type: biochemical
Method: The production of recombinant baculovirus was as described by de Waart et al. [Liver Int 2006 April; 26(3):362-368]. ABCC3 and ABCG2-recombinant baculovirus were a kind gift from Borst [Breedveld P. et al., Cancer Res 2004 Aug. 15; 64(16):5804-5811 and Borst P. et al., J Biol Chem 2001 Dec. 7; 276(49):46400-46407.]. ABCB11-recombinant baculovirus was a kind gift from Thompson [Thompson R J et al., Gastroenterology 2002 November; 123(5):1649-1658]. Sf21 cells grown at 27° C. were infected with ABCB11, ABCC2, ABCC3 and ABCG2-cDNA containing baculovirus. Cells were harvested at 2-4 days after infection. Membrane vesicle preparation was as described by de Waart et al. [Liver Int 2006 April; 26(3):362-368].
Transport studies with membrane vesicles were performed using the rapid filtration technique as described by Heijn M et al. [Am J Physiol 1992 January; 262(1 Pt 1):C104-C110]. Radiolabel was measured with a scintillation counter. When CLF was used as a probe, filters were placed in a glass tube, 0.1% Triton-X-100 was added and the tubes vortexed. Samples were pipetted in 96-well plates (Kartell, Noviglio, Italy) and the amount CLF quantitated by measurement of fluorescence at λexe 485 nm and λcm 520 nm using a NovoStar (BMG-labtech, Offenburg, Germany).

OATP1B1 = biological target: T1, OATP1B1 (Homo sapiens, UniProt Q9Y6L6); experiment: Inhibition by CLF of estrone-3-sulfate transport in CHO cells expressing OATP1B1; assay type: cell-based; details: 0, 5 or 50 μmol/L CLF, 1 μmol/L estrone-3-sulfate
T1 construct: expressed in transfected cells; host or cells: CHO cells (stably transfected; Treiber et al. 2007)
T1 sequence (Q9Y6L6 1-691): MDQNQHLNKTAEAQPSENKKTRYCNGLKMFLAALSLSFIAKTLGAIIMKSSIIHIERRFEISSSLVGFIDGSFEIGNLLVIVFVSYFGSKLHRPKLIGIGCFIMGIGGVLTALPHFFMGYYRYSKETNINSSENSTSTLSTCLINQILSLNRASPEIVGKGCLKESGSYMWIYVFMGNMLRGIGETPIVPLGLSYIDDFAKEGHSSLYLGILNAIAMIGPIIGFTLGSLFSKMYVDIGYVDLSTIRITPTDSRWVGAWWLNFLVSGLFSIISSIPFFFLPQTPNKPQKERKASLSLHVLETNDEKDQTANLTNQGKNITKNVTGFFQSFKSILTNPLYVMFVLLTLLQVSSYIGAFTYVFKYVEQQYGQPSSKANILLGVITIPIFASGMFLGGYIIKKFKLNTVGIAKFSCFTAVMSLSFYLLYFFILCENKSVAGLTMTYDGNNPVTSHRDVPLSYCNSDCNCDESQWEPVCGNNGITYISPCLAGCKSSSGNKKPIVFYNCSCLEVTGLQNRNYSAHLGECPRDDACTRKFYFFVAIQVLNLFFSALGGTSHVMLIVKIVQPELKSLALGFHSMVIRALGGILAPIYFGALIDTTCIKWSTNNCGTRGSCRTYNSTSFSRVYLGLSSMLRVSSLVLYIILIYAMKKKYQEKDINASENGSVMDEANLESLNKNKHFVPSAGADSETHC
Method: FIGS. 3A-3D relate to inhibition of transport activity of hepatocellular uptake transporters by CLF. CHO cells expressing NTCP, OATP1B1, OATP1B3 and OATP2B1 were incubated with 0, 5 or 50 μmol/L CLF and with the substrates, 2.5 μmol/L TC, 1 μmol/L estrone-3-sulfate, 10 μmol/L TC and 1 μmol/L estrone-3-sulfate, respectively. Data represent means±SD of triplicate determinations.
For all transport experiments, cells grown on 3 cm culture dishes were cultured for 24 hours in media supplemented with 5 mmol/L sodium-butyrate to increase expression levels of transfected transporters [Palermo D P et al., J Biotechnol 1991 June; 19(1):35-47]. • Transport experiments with uptake of radioactively labeled substrates: These experiments were performed as described by Huber R D et al. [Am J Physiol Cell Physiol 2007 February; 292(2):C795-C806]. • Transport experiments with uptake of CLF: Uptake was performed in the same buffers as for the radioactive substrates above. […] After complete solubilization, 1.5 ml was used to measure fluorescence in a Perkin-Elmer LS-5 luminescence-spectrometer set at λexe 486 nm (slit 10 nm) and λem 520 nm (slit 5 nm). Protein was determined with the bicinchoninic acid method using a kit from Interchim (Montfuçon, France). […]

Compound: CC(CCC(=O)NC(CCCCNC(=S)Nc1ccc(-c2c3ccc(=O)cc-3oc3cc(O)ccc23)c(C(=O)O)c1)C(=O)O)C1CCC2C3C(O)CC4CC(O)CCC4(C)C3CC(O)C12C (centres unmarked) [CLF, cholyl lysyl fluorescein]
- ATP-dependent uptake of CLF in control vesicles [1]: slight ATP-dependent uptake
- inhibition of transport of estrone-3-sulfate mediated by OATP1B1 by CLF (OATP1B1): much less efficiently
